Results reported in patent US12668584B2, “Heterocyclic compounds as kinase inhibitors for therapeutic uses” (National Health Research Institutes, priority 2019, dated 2026).

Molecular target: Aurora B (Homo sapiens, UniProt Q96GD4)
Assay: HotSpot kinase profiling, Aurora B
Format: biochemical
Conditions: HotSpot assay, 10 μM ATP; IC50 of kinase divided by that of CSF1R
Protocol: More specifically, each compound was tested for inhibitory activity of CSF1R kinase, as compared to that of seven other kinases, i.e., Aurora A, Aurora B, tyrosine-protein kinase Kit (c-Kit), fms-like tyrosine kinase 3 (FLT3), platelet-derived growth factor receptor (PDGFR) A, PDGFR B, and discoidin domain receptor tyrosine kinase 1 (DDR1).
In vitro profiling of the kinase panel was performed at Reaction Biology Corporation (www.reactionbiology.com, Malvern, PA) using the “HotSpot” assay platform. Briefly, specific kinase/substrate pairs along with required cofactors were prepared in a reaction buffer containing 20 mM Hepes pH 7.5, 10 mM MgCl2, 1 mM EGTA, 0.02% Brij35, 0.02 mg/ml BSA, 0.1 mM NA3VO4, 2 mM DTT, and 1% DMSO. […] 20 minutes later, a mixture of ATP (Sigma, St. Louis MO) and ^33P ATP (Perkin Elmer, Waltham MA) was added to the resulting reaction solution to give a final concentration of 10 μM. The reaction was carried out at room temperature for 120 min., followed by spotting the reaction solution onto P81 ion exchange filter paper (Whatman Inc., Piscataway, NJ). Unbound phosphate was removed by extensive washing filters in 0.75% phosphoric acid. […] Selectivity, expressed as an IC50 ratio, was determined by dividing the IC50 value of a kinase, e.g., Aurora A, by that of CSF1R.

Aurora B, sequence (Q96GD4 whole entry): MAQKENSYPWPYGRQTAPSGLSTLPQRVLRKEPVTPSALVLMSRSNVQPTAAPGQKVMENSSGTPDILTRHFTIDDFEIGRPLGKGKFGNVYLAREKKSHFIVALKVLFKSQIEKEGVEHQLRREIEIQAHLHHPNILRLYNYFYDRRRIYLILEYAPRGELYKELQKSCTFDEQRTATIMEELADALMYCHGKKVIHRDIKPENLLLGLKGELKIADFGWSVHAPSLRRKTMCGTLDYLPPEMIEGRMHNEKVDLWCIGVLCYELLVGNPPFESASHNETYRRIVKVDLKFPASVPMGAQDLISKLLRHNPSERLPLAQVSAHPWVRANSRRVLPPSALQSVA

SMILES	IC50 ratio Aurora B / CSF1R
CN(C)c1ccc2c(Oc3ccc(NC(=O)NCc4ccc(C(F)(F)F)nc4)cc3)ncnc2c1 [Compound 27, 1-(4-((7-(dimethylamino)quinazolin-4-yl)oxy)phenyl)-3-((6-(trifluoromethyl)pyridin-3-yl)methyl)urea]	+++ (+++: 1000 > IC50 ratio > 100)
CN(C)c1ccc2c(Oc3ccc4c(ccn4C(=O)NCc4ccc(C(F)(F)F)nc4)c3)ncnc2c1 [Compound 67, 5-((7-(dimethylamino)quinazolin-4-yl)oxy)-N-((6-(trifluoromethyl)pyridin-3-yl)methyl)-1H-indole-1-carboxamide]	+++ (+++: 1000 > IC50 ratio > 100)
